Data on twelve compounds can be found in patent US20230416298A1, “PRODRUGS OF NEUROACTIVE STEROIDS” (Brii Biosciences, Inc., priority 2020, published 2023).

One series is described as follows: Plasma stability. The note with it: 37° C.; for Stability in Human Plasma Formation of parent compound: 2 μM, Yes/No; for half-life at 2 μM: pooled plasma, pH 7.4, human plasma, time points 0, 10, 30, 60 and 120 min. The series is classed as in vitro ADME. Here is the method: The pooled frozen plasma was thawed in a water bath at 37° C. prior to experiment. Plasma was centrifuged at 4000 rpm for 5 min and the clots were removed if any. The pH will be adjusted to 7.4±0.1 if required.
Preparation of test compounds and positive control (propantheline bromide): 1 mM intermediate solution was prepared by diluting 10 μL of the stock solution with 90 μL MeOH; 1 mM intermediate of positive control Propantheline was prepared by diluting 10 μL of the stock solution with 90 μL ultrapure water. 100 μM dosing solution was prepared by diluting 20 μL of the intermediate solution (1 mM) with 180 μL MeOH. 98 μL of blank plasma was spiked with 2 μL of dosing solution (100 μM) to achieve 2 μM of the final concentration in duplicate and samples were incubated at 37° C. in a water bath. At each time point (0,10, 30, 60 and 120 min), 400 μL of stop solution (0.1% FA in MeOH containing 200 ng/mL tolbutamide and 200 ng/mL Labetalol) was added to precipitate protein and mixed thoroughly. Centrifuged sample plates at 4,000 rpm for 10 min. An aliquot of supernatant (100 μL) was transferred from each well to another plates.
Data analysis: The % remaining of test compound after incubation in plasma was calculated using following equation:
% Remaining=[…]×(PAR at appointed incubation time/PAR at T0 time)
where PAR is the peak area ratio of analyte versus internal standard (IS) (LC/MS/MS mobile phase condition: 0.1% Formic Acid in Water/0.1% Formic Acid in Acetonitrile. The appointed incubation time points are TO (0 min), Tn (n=0, 10, 30, 60, 120 min).

The next series is described as follows: Liver S9 stability. Type of series: in vitro ADME. To be noted: human liver S9, 37° C.; for half-life at 1 μM: time points up to 60 min; for Stability in Human Liver S9 Formation of parent compound: Yes/No. How it is done: Intermediate solution: Dilute 5 μL of compounds or controls (7-ethoxycoumarin) from stock solution (10 mM) with 495 μL MeOH (Conc.: 100 μM, 1% DMSO, 99% MeOH). Stop solution: Cold ACN (including 100 ng/mL Tolbutamide and Labetalol as internal standard). Add 2 μL test compound or control working solution/well to all plates (T0, T5, T10, T20, T30, T60, NCF60) except matrix blank. Add 600 μL/well stop solution (cold in 4° C., including 100 ng/mL Tolbutamide/100 ng/mL Labetalol) to terminate the TO plate, then put it on ice. Dispense 840 μL/well S9 solution to 96-well plate as reservoir according to plate map. Then add 100 μL/well to every plate by Apricot. Incubate S9 solution and compound at 37° C. for about 10 min except NCF60 and TO. After adding S9 solution and 98 μ LPB buffer to NCF60, incubate at 37° C. without pre-warming, start timer 1. After 60 min, add 600 μL/well stop solution to terminate the reaction. After pre-warming, dispense 760 μL/well cofactor solution to 96-well plate as reservoir according to plate map. Then add 98 μL/well to every plate by Apricot to start reaction. Incubate at 37° C., start timer 2, Add 600 μL/well stop solution (cold in 4° C., including 100 ng/mL Tolbutamide and Labetalol) to terminate the reaction. Samples are centrifuged at 4000 rpm for 20 min. While centrifuging, load 8×new 96-well plate with 300 μL HPLC water, then transfer 100 μL supernatant, mix with water for LC/MS/MS, transferred to Bioanalytical Services for LC-MS/MS analysis. Use equation of first order kinetics to calculate t1/2 and CL: Equation of first order kinetics: […]

Each structure is given as a SMILES string. Where only a bound is given, the exact number is not on record here.

For `CCCCCC(=O)O[C@@H]1CC[C@@]2(C)[C@@H](CC[C@@H]3[C@@H]2CC[C@]2(C)[C@@H](C(C)=O)CC[C@@H]32)C1` [Example 1, [(3R,5S,8R,9S,10S,13S,14S,17S)-17-acetyl-10,13-dimethyl-2,3,4,5,6,7,8,9,11,12,14,15,16,17-tetradecahydro-1H-cyclopenta[a]phenanthren-3-yl]hexanoate], in the series “Plasma stability”, the “Stability in Human Plasma Formation of parent compound” value (shortened to “Stability in Human Plasma Formation”) was “No” and the half-life (usually the time in which the quantity being followed falls by half) at 2 μM is above 200 min. For the same compound, in “Liver S9 stability”, the half-life at 1 μM is below 50 min and the “Stability in Human Liver S9 Formation of parent compound” value (shortened to “Stability in Human Liver S9 Formation”) was “No”.
Take `CCCCCCC(=O)O[C@@H]1CC[C@@]2(C)[C@@H](CC[C@@H]3[C@@H]2CC[C@]2(C)[C@@H](C(C)=O)CC[C@@H]32)C1` [Example 2, [(3R,5S,8R,9S,10S,13S,14S,17S)-17-acetyl-10,13-dimethyl-2,3,4,5,6,7,8,9,11,12,14,15,16,17-tetradecahydro-1H-cyclopenta[a]phenanthren-3-yl]heptanoate]: in “Plasma stability”, the “Stability in Human Plasma Formation” value is on record as “No” and the half-life at 2 μM is above 200 min. Besides, in “Liver S9 stability”, the half-life at 1 μM was below 50 min and the “Stability in Human Liver S9 Formation” value is “No”.
In the case of `CC(=O)[C@H]1CC[C@H]2[C@@H]3CC[C@H]4C[C@H](OC(=O)CC5CCCC5)CC[C@]4(C)[C@H]3CC[C@]12C` [Example 8, [(3R,5S,8R,9S,10S,13S,14S,17S)-17-acetyl-10,13-dimethyl-2,3,4,5,6,7,8,9,11,12,14,15,16,17-tetradecahydro-1H-cyclopenta[a]phenanthren-3-yl] 3-cyclopentylacetate], in “Plasma stability”, the “Stability in Human Plasma Formation” value was “No” and the half-life at 2 μM is above 200 min. In “Liver S9 stability”, the half-life at 1 μM is below 50 min and the “Stability in Human Liver S9 Formation” value is recorded as “No”.
In the case of `CC(=O)OCCCC(=O)O[C@@H]1CC[C@@]2(C)[C@@H](CC[C@@H]3[C@@H]2CC[C@]2(C)[C@@H](C(C)=O)CC[C@@H]32)C1` [Example 14, [(3R,5S,8R,9S,10S,13S,14S,17S)-17-acetyl-10,13-dimethyl-2,3,4,5,6,7,8,9,11,12,14,15,16,17-tetradecahydro-1H-cyclopenta[a]phenanthren-3-yl]4-acetoxybutanoate], in the series “Plasma stability”, the “Stability in Human Plasma Formation” value is “No” and the half-life at 2 μM is 50 to 200 min. Moreover, in the series “Liver S9 stability”, the half-life at 1 μM is below 50 min and the “Stability in Human Liver S9 Formation” value is recorded as “No”.
As to `CC(=O)[C@H]1CC[C@H]2[C@@H]3CC[C@H]4C[C@H](OC(=O)CCCOC(=O)C(C)C)CC[C@]4(C)[C@H]3CC[C@]12C` [Example 15, [(3R,5S,8R,9S,10S,13S,14S,17S)-17-acetyl-10,13-dimethyl-2,3,4,5,6,7,8,9,11,12,14,15,16,17-tetradecahydro-1H-cyclopenta[a]phenanthren-3-yl]4-(2-methylpropanoyloxy)butanoate], in the series “Plasma stability”, the “Stability in Human Plasma Formation” value is “No” and the half-life at 2 μM was 50 to 200 min. In addition, in the series “Liver S9 stability”, the half-life at 1 μM was below 50 min and the “Stability in Human Liver S9 Formation” value is reported as “No”.
As for `CC(=O)OCCCCC(=O)O[C@@H]1CC[C@@]2(C)[C@@H](CC[C@@H]3[C@@H]2CC[C@]2(C)[C@@H](C(C)=O)CC[C@@H]32)C1` [Example 16, [(3R,5S,8R,9S,10S,13S,14S,17S)-17-acetyl-10,13-dimethyl-2,3,4,5,6,7,8,9,11,12,14,15,16,17-tetradecahydro-1H-cyclopenta[a]phenanthren-3-yl] 5-acetoxypentanoate], in “Plasma stability”, the “Stability in Human Plasma Formation” value was “No” and the half-life at 2 μM lay within 50 to 200 min. Also, in “Liver S9 stability”, the half-life at 1 μM was below 50 min and the “Stability in Human Liver S9 Formation” value is reported as “No”.
For `CC(=O)OCCCC(C)C(=O)O[C@@H]1CC[C@@]2(C)[C@@H](CC[C@@H]3[C@@H]2CC[C@]2(C)[C@@H](C(C)=O)CC[C@@H]32)C1` (stereo partly drawn) [Example 17, [(3R,5S,8R,9S,10S,13S,14S,17S)-17-acetyl-10,13-dimethyl-2,3,4,5,6,7,8,9,11,12,14,15,16,17-tetradecahydro-1H-cyclopenta[a]phenanthren-3-yl]5-acetoxy-2-methyl-pentanoate], in the series “Plasma stability”, the “Stability in Human Plasma Formation” value is “No” and the half-life at 2 μM is 50 to 200 min. Further, in “Liver S9 stability”, the half-life at 1 μM is below 50 min and the “Stability in Human Liver S9 Formation” value is “No”.
Regarding `CC(=O)[C@H]1CC[C@H]2[C@@H]3CC[C@H]4C[C@H](OC(=O)OCCOC(=O)C(C)C)CC[C@]4(C)[C@H]3CC[C@]12C` [Example 19, 2-[[(3R,5S,8R,9S,10S,13S,14S,17S)-17-acetyl-10,13-dimethyl-2,3,4,5,6,7,8,9,11,12,14,15,16,17-tetradecahydro-1H-cyclopenta[a]phenanthren-3-yl]oxycarbonyloxy]ethyl 2-methylpropanoate], in “Plasma stability”, the “Stability in Human Plasma Formation” value was “No” and the half-life at 2 μM is 50 to 200 min. In “Liver S9 stability”, the half-life at 1 μM was below 50 min and the “Stability in Human Liver S9 Formation” value is listed as “Yes”.
For `CC(=O)[C@H]1CC[C@H]2[C@@H]3CC[C@H]4C[C@H](OC(=O)OCc5oc(=O)oc5C)CC[C@]4(C)[C@H]3CC[C@]12C` [Example 20, [(3R,5S,8R,9S,10S,13S,14S,17S)-17-acetyl-10,13-dimethyl-2,3,4,5,6,7,8,9,11,12,14,15,16,17-tetradecahydro-1H-cyclopenta[a]phenanthren-3-yl](5-methyl-2-oxo-1,3-dioxol-4-yl)methyl carbonate], in that order: “Yes”, below 50 min, below 50 min and “Yes”.
For `CCCCOC(=O)O[C@@H]1CC[C@@]2(C)[C@@H](CC[C@@H]3[C@@H]2CC[C@]2(C)[C@@H](C(C)=O)CC[C@@H]32)C1` [Example 21, [(3R,5S,8R,9S,10S,13S,14S,17S)-17-acetyl-10,13-dimethyl-2,3,4,5,6,7,8,9,11,12,14,15,16,17-tetradecahydro-1H-cyclopenta[a]phenanthren-3-yl]butyl carbonate], in “Plasma stability”, the “Stability in Human Plasma Formation” value is recorded as “No” and the half-life at 2 μM was above 200 min. In “Liver S9 stability”, the half-life at 1 μM is below 50 min and the “Stability in Human Liver S9 Formation” value is recorded as “Yes”.
For the compound `CC(=O)[C@H]1CC[C@H]2[C@@H]3CC[C@H]4C[C@H](OC(=O)NCCOC(=O)C(C)C)CC[C@]4(C)[C@H]3CC[C@]12C` [Example 22, 2-[[(3R,5S,8R,9S,10S,13S,14S,17S)-17-acetyl-10,13-dimethyl-2,3,4,5,6,7,8,9,11,12,14,15,16,17-tetradecahydro-1H-cyclopenta[a]phenanthren-3-yl]oxycarbonylamino]ethyl 2-methylpropanoate], in the series “Plasma stability”, the “Stability in Human Plasma Formation” value was “No” and the half-life at 2 μM is above 200 min. Moreover, in the series “Liver S9 stability”, the half-life at 1 μM is below 50 min and the “Stability in Human Liver S9 Formation” value is recorded as “Yes”.
For `CC(=O)[C@H]1CC[C@H]2[C@@H]3CC[C@H]4C[C@H](OC(=O)N(C)CCOC(=O)C(C)C)CC[C@]4(C)[C@H]3CC[C@]12C` [Example 23, 2-[[(3R,5S,8R,9S,10S,13S,14S,17S)-17-acetyl-10,13-dimethyl-2,3,4,5,6,7,8,9,11,12,14,15,16,17-tetradecahydro-1H-cyclopenta[a]phenanthren-3-yl]oxycarbonyl-methyl-amino]ethyl 2-methylpropanoate], in that order: “No”, 50 to 200 min, below 50 min and “Yes”.
